Data from EP0891764B1, “Ethanolic solutions of N-pentadecanoylisoleucine and use thereof in cosmetics” (KASHIMA OIL COMPANY, priority 1997, dated 1999).

Tests used:
[1] = system: male mice aged 8 weeks of C3H series; assay: Hair growth (retrichogenous) test on depilated backs of mice, visual observation versus ethanol only; format: in vivo; design: key: ⓞ: rapid and excellent retrichogenous action; ○: rapid and good retrichogenous action; Δ: slow and slight retrichogenous action; conditions: 1% by weight in ethanol, 0.1 mℓ applied to depilated back once a day over 3 weeks; visual comparison with ethanol only
Text: The results are given also in Table 1. […] Table 1

[2] = Solubility in 70% ethanol at 10°C
Method: A group of eight male mice aged 8 weeks of C3H series with a body weight of 18 to 24g was subjected to depilation at a back portion thereof in a size of about 2× 3.5 cm. Then, each of the N-acylamino acid compounds as shown in Table 1 was dissolved in ethanol to a concentration of 1% by weight as a sample to be tested. Then 0.1 mℓ of the sample were applied to the depilated back portions of the mice once a day over a period of 3 weeks to visually observe the hair growth state. An evaluation was made of the hair growth effect by visually observing the state of trichogenous promotion in comparison with the back portions coated only with ethanol on the basis of the criterion in Table 1.

Row | SMILES | Retrichogenous effect [1] | Solubility (w/w %) [2] [w/w %]
1 | CCCCCCCCCCCCCCC(=O)N[C@@H](C)C(=O)O [Comp. Example 1, N-PDNY-L-alanine] | ⓞ | 0.8
2 | CCCCCCCCCCCCCCC(=O)N[C@@H](CC(C)C)C(=O)O [Comp. Example 2, N-PDNY-L-leucine] | ⓞ | 2.1
3 | CCCCCCCCCCCCCCC(=O)N[C@@H](CCSC)C(=O)O [Comp. Example 3, N-PDNY-L-methionine] | ⓞ | –
4 | CCCCCCCCCCCCCCC(=O)N[C@H](C(=O)O)C(C)C [Comp. Example 4, N-PDNY-L-valine] | ⓞ | 2.5
5 | CCCCCCCCCCCCCCC(=O)N[C@@H](Cc1ccccc1)C(=O)O [Comp. Example 5, N-PDNY-L-phenyl-alanine] | ⓞ | 3.7
6 | CCCCCCCCCCCCCCC(=O)N[C@@H](Cc1ccc(O)cc1)C(=O)O [Comp. Example 6, N-PDNY-L-tyrosine] | ⓞ | 0.7
7 | CCCCCCCCCCCCCCC(=O)N[C@@H](CC(=O)O)C(=O)O [Comp. Example 7, N-PDNY-L-asparatic acid] | ○ | 0.3
8 | CCCCCCCCCCCCCCC(=O)N[C@H](C(=O)O)[C@@H](C)CC [Example 1, N-pentadecanoyl-L-isoleucine] | ⓞ | 4.0
